Assays:
[1] = system: breast cancer cell with wild type Rb; test: inhibition of breast cancer cells with wild type Rb; type: cell-based, human; settings: FIG. 20
Description: (§1) The human cancer cell lines MCF7, BT474 and N417 were obtained from the American Type Culture Collection (Manassas, Va., USA) and maintained in a 1:1 mixture of DME:F12 supplemented with 2 mM glutamine, 50 U/mL penicillin, 50 U/mL streptomycin and 5% heat inactivated fetal bovie serum (Gemini Bioproducts) and incubated at 37° C. in 5% CO2.
(§2) Growth assays were performed by seeding 10000 cells (MCF7, BT474 or N417) per well in 6-well dishes and incubating for 24 h before drug treatment. Drugs or vehicle were administered as outlined for each experiment, and cells were incubated for the time periods depcited and then the number quantified by a Coulter counter.

[2] = system: MCF7 cells (HER2 overexpressed, Rb positive); test: growth of MCF7 cells treated with radicicol and analogues; type: cell-based, human
Description: as §1, §2

[3] = system: small cell lung cancer cell line with defective Rb function; test: inhibition of small cell lung cancer cells with defective Rb function; type: cell-based, human; settings: for inhibition of small cell lung cancer cell line with defective Rb function / potency compared with 17-AGG in small cell lung cancer cell line with defective Rb function: FIG. 20
Description: as §1, §2

Rb negative cells = test: cell cycle effect in Rb negative cells; type: cell-based
Description: (§3) Cell cycle distribution was assayed according to Nusse et al. with a Becton Dickinson fluorescence-activated cell sorter and analyzed by a Cell Cycle Multi-cycle system (Phoenix Flow System, San Diego, Calif., USA).

[4] = system: Rb (retinoblastoma) positive cells; test: cell cycle effect in Rb positive cells; type: cell-based
Description: as §3

HER2 = test: reduction of HER2 in MCF7 and BT474 cells (protein assay, anti-Her2 blot); type: cell-based, human; settings: 0.5 μM through 5 μM
Description: The human cancer cell lines MCF7, BT474 and […] were obtained from the American Type Culture Collection (Manassas, Va., USA) and maintained in a 1:1 mixture of DME:F12 supplemented with 2 mM glutamine, 50 U/mL penicillin, 50 […] and 5% heat inactivated fetal bovie serum (Gemini Bioproducts) and incubated at 37° C. in 5% CO2. Cells were grown to 60-70% confluence and exposed to drugs or DMSO vehicle for the indicated time periods. Lysates were prepared using 5 mM Tris pH 7.4, 2% SDS and 10% glycerol lysis buffer. Protein concentration was determined using the BCA kit (Pierce Chemical Co.) according to the manufacturer's instructions. Clarified protein lysates (20-50 μg) were electrophoretically resolved on denaturing SDS-PAGE, transferred to ntirocellulose and probed with the following primary antibodies: anti-Her2 (C-18).

P. falciparum = settings: against P. falciparum; Isaka et al. 2002; cited from earlier work
HSP90 = test: binding of aigialomycin D to HSP90; settings: compared with radicicol
KB cells = settings: against KB cells; Isaka et al. 2002; cited from earlier work

C[C@@H]1C[C@H]2O[C@@H]2/C=C\C=C\C(=O)Cc2c(Cl)c(O)cc(O)c2C(=O)O1 [Radicicol]
inhibition of breast cancer cell with wild type Rb [1]: potent inhibitors | efficacy in side by side experiment with radicicol (growth of MCF7 cells, FIG. 19) [2]: demonstrated efficacy | inhibition of small cell lung cancer cell line with defective Rb function [3]: potent inhibitors | potency compared with 17-AGG in small cell lung cancer cell line with defective Rb function [3]: much more potent than 17-AGG | cell cycle block in Rb negative cells (Rb negative cells): blocked in the M (mitosis) phase | cell cycle block in Rb positive cells [4]: clear G1 (growth) phase block

C=CCNC1=C2C[C@@H](C)C[C@H](OC)[C@H](O)[C@@H](C)/C=C(\C)[C@H](OC(N)=O)[C@@H](OC)/C=C\C=C(/C)C(=O)NC(=CC1=O)C2=O [17-AGG, 17-allylaminogeldanamycin]
potency in cells with wild type Rb versus cells with defective Rb function ([3]; wild type Rb vs defective Rb): much more potent against cells with wild type Rb than in cells with defective Rb function

radicicol oxime [VII]
efficacy in side by side experiment with radicicol (growth of MCF7 cells, FIG. 19) [2]: demonstrated efficacy

C[C@@H]1C[C@H]2C[C@@H]2/C=C\C=C\C(=O)Cc2c(Cl)c(O)cc(O)c2C(=O)O1 [cyclopropyl radicicol, Cycloproparadicicol]
inhibition of breast cancer cell with wild type Rb [1]: potent inhibitors | inhibition of small cell lung cancer cell line with defective Rb function [3]: potent inhibitors | potency compared with 17-AGG in small cell lung cancer cell line with defective Rb function [3]: much more potent than 17-AGG | effectiveness in reducing HER2 compared with radicicol (HER2): at least as effective, if not better than radicicol

C[C@H]1C/C=C/[C@@H](O)[C@@H](O)CC/C=C/c2cc(O)cc(O)c2C(=O)O1 [Aigialomycin D]
antimalarial activity IC50 (P. falciparum): 6.6 µg/mL | binding to HSP90 (HSP90): does bind to HSP90 (though significantly less so than radicicol (2)) | antitumor activity IC50 (KB cells): 3.0 µg/mL

— US7115651B2, “Macrocycles and uses thereof” (Sloan-Kettering Institute for Cancer Research, priority 2000, dated 2006)
